Values joined by “and” are separate entries in the source; they are usually repeats but may differ in a detail not shown here. Identical values can stand only once. Like-named read-outs stand apart in the source and are kept apart here.
Tests used:
thrombin [1] = experiment: One or both of the two assays (wet and cartridge), summary of effective thrombin inhibitors; format: biochemical; conditions: wet and/or cartridge assay; result in words
thrombin [2] = molecular target: T1, thrombin (Bos taurus, UniProt P00735)
Experimental: Additional cartridges were prepared in which specific inhibitors were combined with the thrombin solution, the thrombin inhibitor/thrombin solution deposited in the cartridge, and dried. […] The TDS reagent (3 microliters) was applied to cartridges and dried. Fibrinogen test samples for these cartridges comprised 40 μL of the fibrinogen working solution combined with 7 μL of the plastic sphere solution.

thrombin [3] = molecular target: T1, thrombin; experiment: Cartridge assay (CoaguChek Plus), dried thrombin reagent in cartridge, inhibitor added to sample; format: biochemical, bovine; design: adding thrombin (Calbiochem 605157 bovine) to the HEPES Base solution; purchased Calbiochem 605157; conditions: for Concentration in reagent found to be effective: clotting time above 10 s and below 300 s for fibrinogen 50 to 400 mg/dL, under 10 s without inhibitor
Experimental: An assay cartridge as described above was constructed in which the reagent chamber was coated with a dried reagent containing thrombin in a HEPES buffer matrix. Liquid samples containing latex beads as blood cell surrogates and various levels of fibrinogen were introduced into the cartridge contained within a CoaguChek™ Plus device. Just prior to introducing a sample into the device, the particular thrombin modulator being tested was added to the sample. A variety of thrombin modulators were tested in this manner.
A HEPES Base solution, pH=7.4, was formed from the following ingredients:
A thrombin solution was formed by adding thrombin (Calbiochem 605157 bovine) to the HEPES Base solution, the resulting concentration being 67 units/mL thrombin.
A 10% solution by weight of polystyrene spheres with a mean diameter of 3.27 μm (Bang Laboratories P0032700) was utilized as a blood cell surrogate for plasma or synthetic blood solutions “plastic sphere solution”).
Test cartridges were prepared by applying 3 microliters of the thrombin solution thereto and drying the solution. For each sample, a fresh “thrombin” cartridge was utilized.
Cartridges containing the dried thrombin reagent were utilized for the following experiments. Standard solutions were prepared in accordance with Example 3, except the thrombin inhibitor concentration was fixed, and the fibrinogen concentrations varied.

thrombin [4] = experiment: Wet screening assay for thrombin inhibitors with BBL Fibrometer (clotting time of fibrinogen solutions); format: biochemical, human plasma or bovine; conditions: for Clotting Time (average), n = 2: 15 mg/mL benzamidine (final concentration); for Found useful/effective as thrombin inhibitor in fibrometer wet assay: result in words; for Clot Time: 200 μL 0.5 mg/mL D.S. working solution, 50 μL 100 U/mL thrombin
Experimental: Materials and Methods: A phosphate buffered saline (PBS)-albumin solution was formed as follows:
2) 100 U/mL thrombin working solution; thrombin was obtained from Calbiochem (605206—human plasma, or 605157—bovine); and
3) fibrinogen working solutions having fibrinogen concentrations ranging from between 6 and 24 mg/mL fibrinogen; fibrinogen was obtained from Calbiochem (341578).
Screening Assay Procedure Using Fibrometer: A BBL Fibrometer was utilized to determine clotting times of test solutions. Test solutions were formed by adding the following components in the following order:
1. 200 μL D.S. working solution,
2. 50 μL thrombin working solution,
3. 50 μL fibrinogen working solution.
Immediately upon addition of the third component (i.e., the fibrinogen working solution), the fibrometer was activated, resulting in the probe being released into the vessel containing the reaction solution. The probe was agitated until sufficient resistance to motion was reached corresponding to a predetermined degree of clotting. A display indicated time from activation of the probe until the predetermined degree of clotting was reached.
Using the method of Example 1, 15 mg/mL benzamidine (Sigma B6506) in the PBS-albumin solution (final concentration) was contacted with samples containing varying amounts of fibrinogen.

O=C(NCCCNC(=O)[C@H](OS(=O)(=O)O)[C@@H](OS(=O)(=O)O)[C@H](O[C@@H]1O[C@H](COS(=O)(=O)O)[C@H](OS(=O)(=O)O)[C@H](OS(=O)(=O)O)[C@H]1OS(=O)(=O)O)[C@@H](COS(=O)(=O)O)OS(=O)(=O)O)[C@H](OS(=O)(=O)O)[C@@H](OS(=O)(=O)O)[C@H](O[C@@H]1O[C@H](COS(=O)(=O)O)[C@H](OS(=O)(=O)O)[C@H](OS(=O)(=O)O)[C@H]1OS(=O)(=O)O)[C@@H](COS(=O)(=O)O)OS(=O)(=O)O [Aprosulate, aprosulate]
Thrombin inhibitor found to be effective (thrombin [1]): effective | Average Clotting Time After Application To Inlet Port Of Cartridge (n = 2) (thrombin [2]; TA reagent dried in cartridge (67 units/mL thrombin, 20 10 g/dL aprosulate as printed), fibrinogen 25.5 mg/mL (so in the source)): 275 s | Average Clotting Time After Application To Inlet Port Of Cartridge (n = 2) (thrombin [2]; TA reagent dried in cartridge, fibrinogen 102 mg/mL (so in the source)): 134 s | Average Clotting Time After Application To Inlet Port Of Cartridge (n = 2) (thrombin [2]; TA reagent dried in cartridge, fibrinogen 204 mg/mL (so in the source)): 41 s | Average Clotting Time After Application To Inlet Port Of Cartridge (n = 2) (thrombin [2]; TA reagent dried in cartridge, fibrinogen 408 mg/mL (so in the source)): 24 s | Clotting Time After Application To Inlet Port Of Cartridge Containing Thrombin Reagent (thrombin [3]; 43 mg/mL aprosulate, fibrinogen 76 mg/mL (so in the source)): 149.1 s | Clotting Time After Application To Inlet Port Of Cartridge Containing Thrombin Reagent (thrombin [3]; 43 mg/mL aprosulate, fibrinogen 153 mg/mL (so in the source)): 85.5 s | Clotting Time After Application To Inlet Port Of Cartridge Containing Thrombin Reagent (thrombin [3]; 43 mg/mL aprosulate, fibrinogen 306 mg/mL (so in the source)): 21.4 s

Cn1c(=O)c2c(ncn2C)n(C)c1=O [Caffeine, caffeine]
Thrombin inhibitor found to be effective (thrombin [1]): effective | Clotting Time After Application To Inlet Port Of Cartridge Containing Thrombin Reagent (thrombin [3]; […] caffeine, fibrinogen 100 mg/mL (so in the source)): 88.8 s | Clotting Time After Application To Inlet Port Of Cartridge Containing Thrombin Reagent (thrombin [3]; […] caffeine, fibrinogen 200 mg/mL (so in the source)): 30.0 s | Clotting Time After Application To Inlet Port Of Cartridge Containing Thrombin Reagent (thrombin [3]; […] caffeine, fibrinogen 400 mg/mL (so in the source)): 24.8 s

N=C(N)c1ccccc1 [benzamidine]
Thrombin inhibitor found to be effective (thrombin [1]): effective | Clotting Time (average), n = 2 (thrombin [4]; sample fibrinogen 100 mg/dL): 242 s | Clotting Time (average), n = 2 (thrombin [4]; sample fibrinogen 200 mg/dL): 139 s | Clotting Time (average), n = 2 (thrombin [4]; sample fibrinogen 400 mg/dL): 93 s

Gly-Gly-Arg
Thrombin inhibitor found to be effective (thrombin [1]): effective | Concentration in reagent found to be effective (thrombin [3]): 0.85 mg/mL and 1.3 mg/mL

Gly-Pro-Ala
Thrombin inhibitor found to be effective (thrombin [1]): effective

Gly-Pro-Arg
Clotting Time After Application To Inlet Port Of Cartridge Containing Thrombin Reagent (thrombin [3]; […] Gly-Pro-Arg peptide, fibrinogen 100 mg/mL (so in the source)): 239.6 s | Clotting Time After Application To Inlet Port Of Cartridge Containing Thrombin Reagent (thrombin [3]; […] Gly-Pro-Arg peptide, fibrinogen 102 mg/mL (so in the source)): 44.1 s | Clotting Time After Application To Inlet Port Of Cartridge Containing Thrombin Reagent (thrombin [3]; […] Gly-Pro-Arg peptide, fibrinogen 204 mg/mL (so in the source)): 9.9 s

Polyanetholesulfate
Thrombin inhibitor found to be effective (thrombin [1]): effective

Polyvinylsulfate
Thrombin inhibitor found to be effective (thrombin [1]): effective

dextran sulfate
Found useful/effective as thrombin inhibitor in fibrometer wet assay (thrombin [4]; listed as dextran sulfate (50,000 Da—Dextralip 50)): effective

dextran sulfate [Dextran Sulfate-5,000 Da]
Concentration in reagent found to be effective (thrombin [3]): 5 mg/mL

dextran sulfate [dextran sulfate (5,000-50,000 MW)]
Thrombin inhibitor found to be effective (thrombin [1]): effective

dextran sulfate [dextran sulfate (10,000 Da)]
Clotting Time After Application To Inlet Port Of Cartridge (thrombin [2]; TDS reagent dried in cartridge (67 units/mL thrombin, 57 mg/mL dextran sulfate 10,000 Da), fibrinogen 198 mg/mL (so in the source)): 40.0 s | Clotting Time After Application To Inlet Port Of Cartridge (thrombin [2]; TDS reagent dried in cartridge (67 units/mL thrombin, 57 mg/mL dextran sulfate 10,000 Da), fibrinogen 396 mg/mL (so in the source)): 26.7 s | Clotting Time After Application To Inlet Port Of Cartridge (thrombin [2]; TDS reagent dried in cartridge (67 units/mL thrombin, 57 mg/mL dextran sulfate 10,000 Da, 3 microliters), fibrinogen 99 mg/mL (so in the source)): 69.6 s | Clot Time (thrombin [4]; final assay fibrinogen 100 mg/dL, about 0.6 s without dextran sulfate): 22.8 s | Clot Time (thrombin [4]; final assay fibrinogen 200 mg/dL): 11.8 s | Clot Time (thrombin [4]; final assay fibrinogen 250 mg/dL): 9.8 s | Clot Time (thrombin [4]; final assay fibrinogen 400 mg/dL): 1.2 s | Found useful/effective as thrombin inhibitor in fibrometer wet assay (thrombin [4]): useful thrombin inhibitor reagent | Clotting Time After Application To Inlet Port Of Cartridge Containing Thrombin Reagent (thrombin [3]; 21 mg/mL dextran sulfate (10,000 Da), fibrinogen 100 mg/mL (so in the source) in combined assay solution): 157.5 s | Clotting Time After Application To Inlet Port Of Cartridge Containing Thrombin Reagent (thrombin [3]; 21 mg/mL dextran sulfate (10,000 Da), fibrinogen 102 mg/mL (so in the source)): 81.9 s | Clotting Time After Application To Inlet Port Of Cartridge Containing Thrombin Reagent (thrombin [3]; 21 mg/mL dextran sulfate (10,000 Da), fibrinogen 204 mg/mL (so in the source)): 28.6 s

Reference: patent US6448024B1, “Method, reagent, cartridge, and device for determining fibrinogen” (Roche Diagnostics Corporation, priority 2000, dated 2002)
